Data: paper PMC8070256, “Feasibility of Developing Radiotracers for MDM2: Synthesis and Preliminary Evaluation of an ^18F-Labeled Analogue of the MDM2 Inhibitor SP-141” (Pharmaceuticals, 2021)
Several values for one entry are separate records, joined by “and”; a condition that tells them apart may be missing. Equal values may be shown once.

Tests used:
[1] = In vitro stability in human serum (HPLC); assay type: in vitro ADME; conditions: 37 °C, 1, 2 and 3 h
Experimental: Next, the in vitro stability of [^18F]1 was examined by incubating the labeled compound with human serum for up to 3 h at 37 °C, followed by HPLC analysis of the samples using gradient elution conditions.
The stability of [^18F]1 in human serum (Innovative Research Inc., Novi, MI, USA) was analyzed by HPLC using a Chromolith® Performance RP-18e column (4.6 × 100 mm, Millipore Sigma, Burlington, MA, USA), eluted with gradient mixtures of sodium acetate buffer (0.05 M, pH 5.5) and ethanol. The percentage of ethanol was kept at 5% for the first 5 min at a flow rate of 0.5 mL and then increased to 90% over 15 min at a flow rate of 1 mL/min. The stability studies were initiated by incubating human serum (0.5 mL) with [^18F]1 (6.66 MBq in 20 µL ethanol) at 37 °C. Samples (100 µL) were analyzed by HPLC after 0, 1, 2, and 3 h incubation. At each time point, the serum sample was spiked with the nonradioactive 1 (10 µg) before HPLC analysis for identity confirmation of the parent peak ([^18F]1).

[2] = test system: athymic mice bearing HepG2 xenografts; test: Tissue distribution studies in HepG2 xenografts; assay type: in vivo
Experimental: Based on the promising results obtained with [^18F]1 in vitro, tissue distribution studies were conducted in athymic mice bearing subcutaneous HepG2 tumor xenografts. HepG2 tumor model was selected because of the higher uptake of [^18F]1 in HepG2 cells and a substantial increase in the uptake in response to co-incubation with 100 µM SP-141, compared to that in MCF-7 cells (Figure 5). Groups of five mice were injected intravenously with [^18F]1 and euthanized at 0.5, 1, or 2 h post injection to determine the tissue distribution of [^18F]1. A separate group of animals (n = 4) were injected intraperitoneally with SP-141 (1.2 mg per mouse; ~140 µM) 30 min before [^18F]1 injection to assess the specificity of tracer uptake in tumors. […] At 30 min post injection, radioactivity levels in most organs were ≥3 %ID/g and decreased to ~2 %ID/g by 2 h.
All animal experiments were conducted in accordance with the regulations of the Duke University Institutional Animal Care and Use Committee (IACUC) under an IACUC-approved protocol. Tissue distribution studies were conducted in mice bearing subcutaneous HepG2 tumor xenografts. To generate the tumor model, male athymic mice (Jackson Labs, Farmington, CT, USA) were injected with 5 × 10^6 HepG2 cells suspended in DMEM and Matrigel (Corning®, Corning, NY, USA, 1:1, 100 µL) in the flank; tissue distribution studies were initiated when the tumor volume reached 200 mm^3. For these studies, groups of five mice were injected with [^18F]1 by the intravenous route and euthanized at 0.5, 1, or 2 h post injection (n = 5 per time point) to assess the tissue distribution of [^18F]1 as described previously. A separate group of animals (n = 4) was injected with SP-141 (1.2 mg per mouse; ~140 µM) by intraperitoneal injection 30 min before [^18F]1 injection to assess the specificity of tracer uptake. The concentration of ^18F activity was calculated as the percentage injected dose per gram tissue (%ID/g).

[3] = 1 h Block: SP-141 (1.2 mg) i.p. 30 min before i.v. [^18F]1

[18F]CCOc1ccc2[nH]c3c(-c4cccc5ccccc45)nccc3c2c1 [[^18F]1]
Percentage of intact [^18F]1 [1]: ~ 100%
Biodistribution, Blood ([2]; 30 min post i.v. injection): 4.2 ± 0.6 %ID/g
Biodistribution, Bone ([2]; 30 min post i.v. injection): 3.1 ± 0.6 %ID/g
Biodistribution, Brain ([2]; 30 min post i.v. injection): 2.9 ± 0.8 %ID/g
Biodistribution, Heart ([2]; 30 min post i.v. injection): 4.1 ± 0.7 %ID/g
Biodistribution, Kidneys ([2]; 30 min post i.v. injection): 3.7 ± 0.8 %ID/g
Biodistribution, Large Intestine ([2]; 30 min post i.v. injection): 6.1 ± 1.7 %ID/g
Biodistribution, Liver ([2]; 30 min post i.v. injection): 3.2 ± 0.5 %ID/g
Biodistribution, Lungs ([2]; 30 min post i.v. injection): 3.9 ± 0.6 %ID/g
Biodistribution, Muscle ([2]; 30 min post i.v. injection): 3.5 ± 0.8 %ID/g
Biodistribution, Skin ([2]; 30 min post i.v. injection): 3.7 ± 0.7 %ID/g
Biodistribution, Small Intestine ([2]; 30 min post i.v. injection): 3.9 ± 1.0 %ID/g
Biodistribution, Spleen ([2]; 30 min post i.v. injection): 3.3 ± 0.4 %ID/g
Biodistribution, Stomach ([2]; 30 min post i.v. injection): 5.1 ± 2.0 %ID/g
Biodistribution, Tumor (HepG2 xenograft) ([2]; 30 min post i.v. injection): 3.3 ± 0.3 %ID/g
Biodistribution, Blood [2, 3]: 2.7 ± 0.9 %ID/g
Biodistribution, Bone [2, 3]: 1.9 ± 0.4 %ID/g
Biodistribution, Brain [2, 3]: 3.3 ± 0.5 %ID/g
Biodistribution, Heart [2, 3]: 3.7 ± 0.3 %ID/g
Biodistribution, Kidneys [2, 3]: 3.8 ± 0.4 %ID/g
Biodistribution, Large Intestine [2, 3]: 3.4 ± 1.4 %ID/g
Biodistribution, Liver [2, 3]: 3.3 ± 0.6 %ID/g
Biodistribution, Lungs [2, 3]: 3.5 ± 0.8 %ID/g
Biodistribution, Muscle [2, 3]: 3.3 ± 0.4 %ID/g
Biodistribution, Skin [2, 3]: 3.0 ± 0.7 %ID/g
Biodistribution, Small Intestine [2, 3]: 4.1 ± 0.3 %ID/g
Biodistribution, Spleen [2, 3]: 3.0 ± 0.6 %ID/g
Biodistribution, Stomach [2, 3]: 1.6 ± 1.2 %ID/g
Biodistribution, Tumor (HepG2 xenograft) [2, 3]: 3.2 ± 0.7 %ID/g
Biodistribution, Blood ([2]; 1 h post i.v. injection): 4.1 ± 0.6 %ID/g
Biodistribution, Bone ([2]; 1 h post i.v. injection): 3.6 ± 1.0 %ID/g
Biodistribution, Brain ([2]; 1 h post i.v. injection): 2.6 ± 0.8 %ID/g
Biodistribution, Heart ([2]; 1 h post i.v. injection): 4.0 ± 0.7 %ID/g
Biodistribution, Kidneys ([2]; 1 h post i.v. injection): 3.3 ± 0.6 %ID/g
Biodistribution, Large Intestine ([2]; 1 h post i.v. injection): 7.7 ± 1.8 %ID/g
Biodistribution, Liver ([2]; 1 h post i.v. injection): 2.8 ± 0.4 %ID/g
Biodistribution, Lungs ([2]; 1 h post i.v. injection): 3.8 ± 0.7 %ID/g
Biodistribution, Muscle ([2]; 1 h post i.v. injection): 2.6 ± 0.6 %ID/g
Biodistribution, Skin ([2]; 1 h post i.v. injection): 3.4 ± 0.5 %ID/g
Biodistribution, Small Intestine ([2]; 1 h post i.v. injection): 4.0 ± 0.7 %ID/g
Biodistribution, Spleen ([2]; 1 h post i.v. injection): 2.7 ± 0.7 %ID/g
Biodistribution, Stomach ([2]; 1 h post i.v. injection): 2.7 ± 0.8 %ID/g
Biodistribution, Tumor (HepG2 xenograft) ([2]; 1 h post i.v. injection): 3.0 ± 0.7 %ID/g
Biodistribution, Blood ([2]; 2 h post i.v. injection): 3.3 ± 0.8 %ID/g
Biodistribution, Bone ([2]; 2 h post i.v. injection): 5.4 ± 0.8 %ID/g
Biodistribution, Brain ([2]; 2 h post i.v. injection): 2.0 ± 0.7 %ID/g
Biodistribution, Heart ([2]; 2 h post i.v. injection): 3.3 ± 0.9 %ID/g
Biodistribution, Kidneys ([2]; 2 h post i.v. injection): 2.4 ± 0.6 %ID/g
Biodistribution, Large Intestine ([2]; 2 h post i.v. injection): 7.1 ± 2.9 %ID/g
Biodistribution, Liver ([2]; 2 h post i.v. injection): 2.4 ± 0.5 %ID/g
Biodistribution, Lungs ([2]; 2 h post i.v. injection): 2.1 ± 0.8 %ID/g
Biodistribution, Muscle ([2]; 2 h post i.v. injection): 2.6 ± 0.7 %ID/g
Biodistribution, Skin ([2]; 2 h post i.v. injection): 3.1 ± 0.4 %ID/g
Biodistribution, Small Intestine ([2]; 2 h post i.v. injection): 3.0 ± 0.5 %ID/g
Biodistribution, Spleen ([2]; 2 h post i.v. injection): 2.1 ± 0.4 %ID/g
Biodistribution, Stomach ([2]; 2 h post i.v. injection): 2.1 ± 0.7 %ID/g
Biodistribution, Tumor (HepG2 xenograft) ([2]; 2 h post i.v. injection): 3.0 ± 0.8 %ID/g
Radioactivity levels in most organs / normal tissues ([2]; 2 h post injection): ~ 2 %ID/g and 2–3 %ID/g
Tumor-to-muscle ratio ([2]; 2 h post injection): 1.14 ± 0.18
Tumor-to-normal tissue (tumor-to-background) ratios ([2]; 2 h post injection): < 2
Tumor uptake and retention in HepG2 xenografts ([2]; over the 2-h observation period): ~ 3 %ID/g
